Experimental data as given in patent US6022307A, “Substituted dibenzothiophenes having antiangiogenic activity” (American Cyanamid Company, priority 1999, dated 2000).
Where a name gives a salt, the structure may show the parent alone.

Key:
[1] = test system: corneal neovascularization; test: Corneal Neovascularization Model; assay type: in vivo, mice; settings: 100 mg/kg, PO, days 1-10
Experimental: Corneal Neovascularization Model
The sustained release preparations of angiogenic agents (ELVAX pellet) were prepared by solvent casting. […] The solvent was then evaporated, leaving the angiogenic agent in the polymeric matrix
Mice were anesthetized using a 1-1.5 ml/kg solution containing a mixture of 70% ketamine hydrochloride (100 mg/ml) and 30% xylazine (20 mg/ml). Using sterile surgical technique, an ELVAX pellet containing either basic FGF (100 ng) or VEGF (400 ng) was implanted into a previously dissected intrastromal corneal pocket 0.5 mm from the corneoscleral limbus. Following implantation the implantation site margins were reapposed and the eyes were treated with topical antibiotic ointment (bacitracin/neomycin/polymixin). On various days (between postoperative days 4 and 18) the extent of neovascularization was measured.
Neovascularization was monitored by measurements of new vessel growth within the previously avascular cornea. This parameter was obtained by measuring with calipers under microscopic magnification the length of the base of the neovascular bed at the limbus. The area of neovascularization,which is typically triangular, was calculated by dividing the product of the length of the vessel and the base length by two. Data was statistically analyzed via Student-t-test of Log Relative Reduction of Neovascularization. A p-value (p≤0.05) indicates a statistically significant reduction in neovascularization of Treated Group, compared to Placebo Control.

[2] = test system: VEGF 165-induced vascular permeability; test: Inhibition of Vascular Permeability Assay (Miles Assay); assay type: in vivo, BALB/c female mice; settings: 100 mg/kg, PO
Experimental: Inhibition of Vascular Permeability Assay (Miles Assay) This assay was performed using BALB/c female mice (Charles River, Wilmington, Mass.). Both sides of the animals were shaved between 24 and 48 hours before the start of the assay. There were 10 animals per experimental group. […] One half hour later the animals were sacrificed by CO2 inhalation. […] Data was statistically analyzed via Student-t-test. A p-value (p≤0.05) indicates a statistically significant difference between the area of vascular permeability of the vehicle control verses the experimental group. Data was statistically analyzed via Student-t-test of Log Relative Area of Permiability. A p-value (p≤0.05) indicates a statistically significant reduction in permeability of Treated Group, compared to Placebo Control.

Experimental for KDR: Inhibition of Binding of VEGF 165 to KDR & Flt-1 Receptors as Measured by SPA Assay
Preparation of conditioned media containing the KDR-Fc soluble VEGF receptor.:
Human 293KDR2 cells, which secrete a soluble KDR-Fc fusion protein, were grown in Dulbecco's Modified Eagle Medium supplemented with 10% fetal calf serum, 2 mM glutamine, 10 units/ml penicillin G sulfate, 10 μg/ml streptomycin sulfate and 175 μg/ml geneticin (G418) sulfate. Cells were plated at a density of 10^6 cells/100 mm dish and incubated at 37° C. in a humidified atmosphere containing 95% air and 5% CO2. After 10 days, conditioned medium was collected and centrifuged at 15,000 rpm for 15 min to remove dead cells. A total of 0.1 volume of 1.15% gelatin and 0.02 volume of 1M HEPES buffer (pH 8) was added. Leupeptin and pepstatin A were added to 1 μg/ml each.
Preparation of ^125 I-labelled VEGF ligand:
Recombinant human ^125 T-labelled VEGF 165 was purchased from Amersham (3,800 cpm/fmol). ^125,-labelled VEGF was diluted in DMEM supplemented with gelatin (0.15%) and HEPES buffer (20 mM) to a final concentration of 40,000 cpm/25 μl.
Preparation of SPA beads:
SPA PVT antibody-binding beads were purchased from Amersham. Each bottle of SPA beads (500 mg) was reconstituted in 25 ml of DMEM supplemented with gelatin (0.15%) and HEPES buffer (20 mM). The bottle contents were well mixed (15 min with a stir bar at room temperature).
SPA assays were performed in flat-bottom polystyrene 96 well microtitre plates.
(a) Pipette 50 μl of SPA beads to well.
(b) Pipette 25 μl of conditioned medium to well.
(d) Pipette 25 μl of ^125 J-VEGF 165 to well.
The appropriate control wells were set up to measure non-specific binding, solvent effect, etc. The assays were run in duplicate or triplicate wells. Plates were sealed and incubate at room temperature without shaking for 5 to 20 hours. Plates were then counted in a Packard TopCount microtitre plate liquid scintillation counter.
A typical assay gave 3,000 to 6,000 cpm bound. Background binding (measured in the presence of 100-fold molar excess of unlabelled VEGF 165) was typically 200 to 300 cpm bound. Compounds were tested at 30, 10, 3, 1, 0.3 and 0.1 μg/ml in DMSO. […] Half maximal binding was determined by the following equation:
s=maximal cpm bound in the absence of compound.
The IC50 values were determined graphically by the following procedure:
A graph was drawn plotting compound concentration (x-axis) versus cpm bound (y-axis).
The half maximal binding was calculated using the equation above.
A horizontal line (LINE A) was drawn which intersects the y-axis at the half maximal binding value.
A vertical line (LINE B) was drawn through the point where LINE A intersects the inhibition curve.
The point where LINE B intersects the x-axis was extrapolated from the graph to give the IC50 value.

COc1ccc(C=CC(=O)Nc2cc3sc4cc(NC(=O)C=Cc5ccc(OC)c(OC)c5Cl)c(C(=O)[O-])cc4c3cc2C(=O)[O-])c(Cl)c1OC.[Na+].[Na+]
Inhibition of Corneal Neovascularization ([1]; Day 4): 11% | Inhibition of Corneal Neovascularization ([1]; Day 8): 24% | Inhibition of Corneal Neovascularization ([1]; Day 11): 29% | Inhibition of Corneal Neovascularization ([1]; Day 13): 37%

O=C(Nc1cc2sc3cc(NC(=O)c4cc5ccccc5s4)c(C(=O)O)cc3c2cc1C(=O)O)c1cc2ccccc2s1 [Example 2, 3,7-Bis-r(benzo[b]thiophene-2-carbonyl)amino]dibenzothiophene-2,8-dicarboxylic acid, disodium salt]
% Control ([2]; 4 hr prior to VEGF): 57% | Lesion Area (measured area of vascular permeability) ([2]; 4 hr prior to VEGF): 34.0 mm^2 | IC50 (KDR): 1.5 µg/mL

O=C(C=Cc1ccc(-c2ccccc2)cc1)Nc1cc2c(cc1S(=O)(=O)O)-c1cc(S(=O)(=O)O)c(NC(=O)C=Cc3ccc(-c4ccccc4)cc3)cc1S2(=O)=O [Example 24, 3,7-Bis-[3-(4-phenylphenyl)acryloylamino]-5,5-dioxo-5H-5λ^6-dibenzothiophene-2,8-disulfonic acid, disodium salt]
% Control ([2]; 1 hr prior to VEGF): 55% | Lesion Area (measured area of vascular permeability) ([2]; 1 hr prior to VEGF): 25.8 mm^2 | % Control ([2]; 2 hr prior to VEGF): 80% | Lesion Area (measured area of vascular permeability) ([2]; 2 hr prior to VEGF): 37.8 mm^2 | % Control ([2]; 4 hr prior to VEGF): 49% | Lesion Area (measured area of vascular permeability) ([2]; 4 hr prior to VEGF): 23.1 mm^2 | IC50 (KDR): 0.8 µg/mL

O=Cc1ccc(/C=C/C(=O)Nc2cc3c(cc2S(=O)(=O)O)-c2cc(S(=O)(=O)O)c(NC(=O)/C=C/c4ccc(C=O)cc4)cc2S3(=O)=O)cc1 [Example 29, 3,7-Bis-[3-(4-formylphenyl)-acryloylamino]-5,5-dioxo-5H-5^6-dibenzothiophene-2,8-disulfonic acid, disodium salt]
% Control ([2]; 4 hr prior to VEGF): 81% | Lesion Area (measured area of vascular permeability) ([2]; 4 hr prior to VEGF): 76.5 mm^2 | IC50 (KDR): 0.5 µg/mL

COc1ccccc1C=CC(=O)Nc1cc2c(cc1S(=O)(=O)O)-c1cc(S(=O)(=O)O)c(NC(=O)C=Cc3ccccc3OC)cc1S2(=O)=O [Example 37, 3,7-Bis-[3-(2-methoxyphenyl)-acryloylamino]-5,5-dioxo-5H-5^6-dibenzothiophene-2,8-disulfonic acid, disodium salt]
IC50 (KDR): 2 µg/mL

O=C(/C=C/c1cccc(C(F)(F)F)c1)Nc1cc2c(cc1S(=O)(=O)O)-c1cc(S(=O)(=O)O)c(NC(=O)/C=C/c3cccc(C(F)(F)F)c3)cc1S2(=O)=O [Example 38, 3,7-Bis-[3-(3-trifluoromethyl-phenyl)acryloyl-amino]-5,5-dioxo-5H-5^6-dibenzothiophene-2,8-disulfonic acid, disodium salt]
IC50 (KDR): 5 µg/mL

O=C(Nc1cc2c(cc1S(=O)(=O)O)-c1cc(S(=O)(=O)O)c(NC(=O)c3cc4ccccc4s3)cc1S2(=O)=O)c1cc2ccccc2s1 [Example 40, 3,7-Bis-[(benzo[b]thiophene-2-carbonyl)amino]-5,5-dioxo-5H-5^ -dibenzothiophene-2,8-disulfonic acid, disodium]
IC50 (KDR): 4 µg/mL

O=C(Nc1cc2c(cc1S(=O)(=O)O)-c1cc(S(=O)(=O)O)c(NC(=O)c3cc4ccccc4o3)cc1S2(=O)=O)c1cc2ccccc2o1 [Example 42, 3,7-Bis[(benzo[b]furan-2-carbonyl)amino]-5,5-dioxo-5H-5^6-dibenzothiophene-2,8-disulfonic acid, disodium salt]
% Control ([2]; 2 hr prior to VEGF): 74% | Lesion Area (measured area of vascular permeability) ([2]; 2 hr prior to VEGF): 40.0 mm^2 | Lesion Area (measured area of vascular permeability) ([2]; 2 hr prior to VEGF, disodium salt): 33.5 mm^2 | % Control ([2]; 4 hr prior to VEGF): 69% | Lesion Area (measured area of vascular permeability) ([2]; 4 hr prior to VEGF): 31.1 mm^2 | IC50 (KDR): 0.6 µg/mL

O=C(Nc1cc2c(cc1S(=O)(=O)O)-c1cc(S(=O)(=O)O)c(NC(=O)c3cc4sccc4s3)cc1S2(=O)=O)c1cc2sccc2s1 [Example 43, 5,5-Dioxo-3,7-bis-[(thieno[3,2-b]thiophene-2-carbonyl)-amino]-5H-5^6-dibenzothiophene-2,8-disulfonic acid, disodium]
IC50 (KDR): 0.6 µg/mL

Cc1nn(C)c2sc(C(=O)Nc3cc4c(cc3S(=O)(=O)O)-c3cc(S(=O)(=O)O)c(NC(=O)c5cc6c(C)nn(C)c6s5)cc3S4(=O)=O)cc12 [Example 44, 3,7-Bis-[(1,3-di-methyl-1H-thieno[2,3-c]pyrazole-5-carbonyl)amino]-5,5-dioxo-5H-5^6-dibenzothiophene-2,8-disulfonic acid, disodium salt]
IC50 (KDR): 1.5 µg/mL

O=C(Nc1cc2c(cc1S(=O)(=O)O)-c1cc(S(=O)(=O)O)c(NC(=O)c3cnn(-c4ccccc4)n3)cc1S2(=O)=O)c1cnn(-c2ccccc2)n1 [Example 46, 5,5-Dioxo-3,7-bis-[(2-phenyl-2H-[1,2,3]triazole-4-carbonyl)amino]-5H-5^6-dibenzothiophene-2,8-disulfonic acid, disodium salt]
IC50 (KDR): 5 µg/mL

COc1ccc2cc(C(=O)Nc3cc4c(cc3S(=O)(=O)O)-c3cc(S(=O)(=O)O)c(NC(=O)c5cc6ccc(OC)cc6oc5=O)cc3S4(=O)=O)c(=O)oc2c1 [Example 47, 3,7-Bis-[(7-methoxy-2-oxo-benzopyran-3-yl)-carbonylamino]-5,5-dioxo-5H-5^6-dibenzothiophene-2,8-disulfonic acid, disodium salt]
% Control ([2]; 4 hr prior to VEGF): 71% | Lesion Area (measured area of vascular permeability) ([2]; 4 hr prior to VEGF): 32.8 mm^2 | IC50 (KDR): 0.5 µg/mL

COc1ccc(C(=O)Nc2cc3c(cc2S(=O)(=O)O)-c2cc(S(=O)(=O)O)c(NC(=O)c4ccc(OC)cc4)cc2S3(=O)=O)cc1 [Example 50, 3,7-Bis-(4-methoxybenzoyl-amino)-5,5-dioxo-5H-5^6-dibenzothiophene-2,8-disulfonic acid, disodium salt]
IC50 (KDR): 5 µg/mL

COc1ccc(C(=O)Nc2cc3c(cc2S(=O)(=O)O)-c2cc(S(=O)(=O)O)c(NC(=O)c4ccc(OC)cc4OC)cc2S3(=O)=O)c(OC)c1 [Example 51, 3,7-Bis-(2,4-dimethoxybenzoyl-amino)-5,5-dioxo-5H-5^6-dibenzothiophene-2,8-disulfonic acid disodium salt]
IC50 (KDR): 5 µg/mL

O=C(Nc1cc2c(cc1S(=O)(=O)O)-c1cc(S(=O)(=O)O)c(NC(=O)c3ccc(S(=O)(=O)c4ccccc4)cc3)cc1S2(=O)=O)c1ccc(S(=O)(=O)c2ccccc2)cc1 [Example 52, 5,5-Dioxo-3,7-bis-(4-phenyl-sulfonylbenzoyl-amino)-5H-5^6-dibenzothiophene-2,8-disulfonic acid, disodium salt]
IC50 (KDR): 7 µg/mL

CCOc1cc2ccccc2cc1C(=O)Nc1cc2c(cc1S(=O)(=O)O)-c1cc(S(=O)(=O)O)c(NC(=O)c3cc4ccccc4cc3OCC)cc1S2(=O)=O [Example 53, 3,7-Bis-(3-ethoxy-naphthalen-2-ylcarbonylamino)-5,5-dioxo-5H-5^6-dibenzothiophene-2,8-disulfonic acid, disodium salt]
IC50 (KDR): 7 µg/mL

O=C(Nc1cc2c(cc1S(=O)(=O)O)-c1cc(S(=O)(=O)O)c(NC(=O)c3ccc4ccccc4c3)cc1S2(=O)=O)c1ccc2ccccc2c1 [Example 57, 3,7-Bis-[(naphthalen-2-yl)carbonylamino]-5,5-dioxo-5H-5^6-dibenzothiophene-2,8-disulfonic acid, disodium salt]
IC50 (KDR): 5 µg/mL

COc1ccc(C(=O)Nc2ccc(C(=O)Nc3cc4c(cc3S(=O)(=O)O)-c3cc(S(=O)(=O)O)c(NC(=O)c5ccc(NC(=O)c6ccc(OC)cc6OC)cc5OC)cc3S4(=O)=O)c(OC)c2)c(OC)c1 [Example 58, 3,7-Bis-({4-[(2,4-dimethoxy-phenyl)carbonyl-amino]-2-methoxy-phenyl}carbonyl-amino)-5,5-dioxo-5H-5^6-dibenzothiophene-2,8-disulfonic acid, disodium salt]
IC50 (KDR): 1.5 µg/mL

COc1cc(NC(C)=O)ccc1C(=O)Nc1cc2c(cc1S(=O)(=O)O)-c1cc(S(=O)(=O)O)c(NC(=O)c3ccc(NC(C)=O)cc3OC)cc1S2(=O)=O [Example 59, 3,7-Bis-[(4-acetylamino-2-methoxy-phenyl)carbonylamino]-5,5-dioxo-5H-5^6-dibenzothiophene-2,8-disulfonic acid, disodium salt]
IC50 (KDR): 6 µg/mL

O=C(Nc1ccc(C(=O)Nc2cc3c(cc2S(=O)(=O)O)-c2cc(S(=O)(=O)O)c(NC(=O)c4ccc(NC(=O)c5ccccc5)cc4)cc2S3(=O)=O)cc1)c1ccccc1 [Example 60, 3,7-Bis-(4-benzoylaminobenzoylamino)-5,5-dioxo-5H-5^6-dibenzothiophene-2,8-disulfonic acid, disodium salt]
IC50 (KDR): 0.5 µg/mL

COc1ccc(C=CC(=O)Nc2cc3sc4cc(NC(=O)C=Cc5ccc(OC)c(OC)c5Cl)c(C(=O)[O-])cc4c3cc2C(=O)[O-])c(Cl)c1OC.[Na+].[Na+] [disodium salt]
IC50 (KDR): 3 µg/mL
